# Measurements taken from patent publication US20070259329A1, “Anergy-inducing cellular composition” (BioVerde. Inc., priority 2006, published 2007).
# Marks after values point to notes of the source that are not given here.
# Columns and labels:
# [1] = test system: C57BI/6 splenocytes co-cultured with EGCG-treated BALB/c splenocytes; experiment: Occurrence of anergy: secondary stimulation of one-way MLR cultures; type: cell-based, murine; settings: additional 48 hours, FIG. 9
# Experimental: (§1) In a one-way MLR (FIG. 3), a stimulator splenocyte population (BALB/c) was treated with 30 ppm mitomycin C (MP Biomedicals) in RPMI 1640 (10% FCS) at 37 degree C. for 30 min. to arrest its proliferation before EGCG treatments. The splenocytes were then resuspended with the media solution (RPMI 1640 and 10 mM HEPES) containing 0, 100, and 200 ppm EGCG and incubated at 4-8 degree C. for 1 hour and twice washed with RPMI 1640 (10% FCS) before used for MLR experiments. In a two-way MLR (FIG. 4), both stimulator and responder populations were left capable of proliferating. Each cell population was resuspended in RPMI 1640 (10% FCS) and antibiotics: (penicillin 100 U/ml and streptomycin 100 ppm, BioWhittaker) to a final concentration of 5.0×10^6 cells/ml. The stimulator and responder cells were mixed with a 1:1 ratio (120 μl each) and incubated in triplicate in 96-well plates for 72 hours at […] and 5% CO2. Cell proliferation was estimated by counting with trypan-blue exclusion a small sample of the cells from each MLR well.
# [2] = target: T1, CD80 (Mus musculus, UniProt Q00609); experiment: Lymphocyte marker analysis by flow cytometry, CD80 epitope; type: cell-based, murine (C57BI/6 splenocytes); settings: for percent expression of cell surface molecule CD80: epitope-specific antibody, average of triplicate; for average percent suppression in epitope detection, CD80: relative to untreated control (0 ppm)
# T1 construct: endogenous in cells; host or cells: murine splenocytes (C57Bl/6)
# T1 sequence (Q00609 38-306): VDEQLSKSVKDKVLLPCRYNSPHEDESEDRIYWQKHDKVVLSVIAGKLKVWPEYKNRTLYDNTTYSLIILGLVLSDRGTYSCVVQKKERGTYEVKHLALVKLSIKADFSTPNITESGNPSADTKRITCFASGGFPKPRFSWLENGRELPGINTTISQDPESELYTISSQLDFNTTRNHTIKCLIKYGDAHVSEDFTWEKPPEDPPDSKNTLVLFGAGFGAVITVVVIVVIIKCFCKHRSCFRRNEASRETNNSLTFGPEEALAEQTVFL
# Experimental: (§2) To evaluate the action of EGCG in rendering cells to become anergy-inducing, murine splenocytes were used as a model system. Splenocytes were collected from BALB/c (H2 K^b) and C57BI/6 (H2 K^d) female mice of 8 to 13 weeks of age in HBSS (BioWhittaker) with 1% FCS. Cells were washed with HBSS (1% FCS) and treated with the media solution which contains RPMI 1640 (Sigma-Aldrich), 10 mM HEPES (Dojindo), and various concentrations of EGCG (98% purity, Roche) described in the examples.
# (§3) Flow cytometric analyses of surface epitopes for the control and EGCG-treated splenocytes were performed using a series of fluorescence-labeled monoclonal anti-mouse CD and MHC and corresponding isotype control antibodies (eBioscience: CD2, CD36, CD4, CD11a, CD25, CD 28, CD 49d and CD80; Pharmingen: TCRαβ and MHC II). Murine splenocytes (C57BI/6) were treated with red blood cell lysis buffer (eBioscience) for 5 min prior to EGCG treatments. Immediately following EGCG-treatments, the splenocytes were washed with RPMI 1640 (10% FCS) and a staining buffer (eBioscience) at 4 degree C. Each splenocyte sample was reconstituted as a 50 μl aliquot in the same staining buffer and subject to antibody labeling. After washing twice the samples with the staining buffer, a minimum of 10,000 events per sample was collected on a Becton Dickinson FACScan flow cytometer.
# [3] = target: T2, CD4 (Mus musculus, UniProt P06332); experiment: Lymphocyte marker analysis by flow cytometry, CD4 epitope; type: cell-based, murine (C57BI/6 splenocytes); settings: for percent expression of cell surface molecule CD4: epitope-specific antibody, average of triplicate; for average percent suppression in epitope detection, CD4: relative to untreated control (0 ppm)
# T2 construct: endogenous in cells; host or cells: murine splenocytes (C57Bl/6)
# T2 sequence (P06332 27-457): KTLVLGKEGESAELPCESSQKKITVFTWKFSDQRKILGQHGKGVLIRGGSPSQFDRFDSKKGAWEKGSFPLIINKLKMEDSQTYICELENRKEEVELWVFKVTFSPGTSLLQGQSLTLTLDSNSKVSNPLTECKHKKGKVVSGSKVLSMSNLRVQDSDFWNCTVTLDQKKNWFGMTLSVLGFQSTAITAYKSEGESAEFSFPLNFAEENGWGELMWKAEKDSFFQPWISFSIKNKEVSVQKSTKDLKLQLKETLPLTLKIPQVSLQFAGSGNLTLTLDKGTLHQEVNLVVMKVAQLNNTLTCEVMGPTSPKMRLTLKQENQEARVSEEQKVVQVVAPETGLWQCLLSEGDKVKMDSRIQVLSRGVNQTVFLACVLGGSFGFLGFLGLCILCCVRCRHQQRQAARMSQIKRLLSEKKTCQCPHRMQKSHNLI
# Experimental: as §2, §3
# [4] = test system: BALB/c (stimulator cells) and C57BI/6 (responder cells) splenocytes; experiment: Two-way mixed lymphocyte reaction (MLR); type: cell-based, murine; settings: stimulator or responder cells treated with EGCG, 72 hours culture, FIG. 4
# Source text: In a two-way MLR (FIG. 4), both stimulator and responder populations were left capable of proliferating. […] (penicillin 100 U/ml and streptomycin 100 ppm, BioWhittaker) to a final concentration of 5.0×10^6 cells/ml. […] Cell proliferation was estimated by counting with trypan-blue exclusion a small sample of the cells from each MLR well.
# [5] = test system: TCRαβ; experiment: Lymphocyte marker analysis by flow cytometry, TCRαβ epitope; type: cell-based, murine (C57BI/6 splenocytes); settings: for percent expression of cell surface molecule TCRαβ: epitope-specific antibody, average of triplicate; for average percent suppression in epitope detection, TCRαβ: relative to untreated control (0 ppm)
# Experimental: as §2, §3
# [6] = test system: IL-2 production; experiment: Cytokine ELISA of one-way MLR supernatants, IL-2; type: cell-based, murine; settings: versus untreated, FIG. 7
# Experimental: as §1
# Supernatants from the one-way MLR wells (Example II) were assayed for IL-2 and INF-γ production using cytokine quantification ELISA (e-Bioscience).
# [7] = target: T3, CD25 (Mus musculus, UniProt P01590); experiment: Lymphocyte marker analysis by flow cytometry, CD25 epitope; type: cell-based, murine (C57BI/6 splenocytes); settings: for percent expression of cell surface molecule CD25: epitope-specific antibody, average of triplicate; for average percent suppression in epitope detection, CD25: relative to untreated control (0 ppm)
# T3 construct: endogenous in cells; host or cells: murine splenocytes (C57Bl/6)
# T3 sequence (P01590 22-268): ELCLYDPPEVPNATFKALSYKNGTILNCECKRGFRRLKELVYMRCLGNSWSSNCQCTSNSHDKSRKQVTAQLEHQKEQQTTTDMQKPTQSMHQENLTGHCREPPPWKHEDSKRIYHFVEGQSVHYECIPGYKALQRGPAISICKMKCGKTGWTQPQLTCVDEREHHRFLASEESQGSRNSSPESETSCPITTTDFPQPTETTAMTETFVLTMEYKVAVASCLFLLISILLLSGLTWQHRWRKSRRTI
# Experimental: as §2, §3
substance,measurement,setting,value
(−)-epigallocatechin-3-o-gallate [EGCG],T-cell proliferation after secondary stimulation,"[1]; both treatments (fresh stimulator cells, exogenous IL-2 1.7 IU/ml) added at 48 hours",subtle but significant suppression
same,T-cell proliferation after secondary stimulation,[1]; cell-stimulated cultures: fresh BALB/c stimulator cells added at 48 hours,suppressed the proliferation down to the level of unstimulated blank
same,percent expression of cell surface molecule CD80,[2]; EGCg 100 ppm,3.1%
same,"average percent suppression in epitope detection, CD80",[2]; EGCg 100 ppm,(85.4)** percent
same,percent expression of cell surface molecule CD80,[2]; EGCg 200 ppm,9.7%
same,"average percent suppression in epitope detection, CD80",[2]; EGCg 200 ppm,(16.4)** percent
same,percent expression of cell surface molecule CD4,[3]; EGCg 100 ppm,21.1%
same,"average percent suppression in epitope detection, CD4",[3]; EGCg 100 ppm,(12.1)* percent
same,percent expression of cell surface molecule CD4,[3]; EGCg 200 ppm,20.8%
same,"average percent suppression in epitope detection, CD4",[3]; EGCg 200 ppm,(13.3)* percent
same,proliferation of splenocytes,[4],significantly decreased
same,binding of TCRαβ with its monoclonal antibody,"[5]; EGCG treatment, summary of TABLE 1",hardly to moderately decreased
same,percent expression of cell surface molecule TCRαβ,[5]; EGCg 100 ppm,29.9%
same,"average percent suppression in epitope detection, TCRαβ",[5]; EGCg 100 ppm,(3.5)^n.s. percent
same,percent expression of cell surface molecule TCRαβ,[5]; EGCg 200 ppm,29.7%
same,"average percent suppression in epitope detection, TCRαβ",[5]; EGCg 200 ppm,(4.2)^n.s. percent
same,production of IL-2,[6],significantly decreased down to near or below the background levels
same,percent expression of cell surface molecule CD25,[7]; EGCg 100 ppm,11.6%
same,"average percent suppression in epitope detection, CD25",[7]; EGCg 100 ppm,(16.5)^n.s. percent
same,percent expression of cell surface molecule CD25,[7]; EGCg 200 ppm,10.8%
same,"average percent suppression in epitope detection, CD25",[7]; EGCg 200 ppm,(22.3)* percent
same,blocking of CD25 by EGCG,[7]; summary of TABLE 1,blocked
